Test results reported in US20110281852A1 (priority 2010, published 2011).

Tests used:
PPARγ [1] = test: Immunoblotting, PPARγ protein in 3T3-L1; format: cell-based, mouse; settings: 8 days
Experimental: Immunoblotting: Protein expression of SREBP-1, PPARγ, and C/EBPα relative to 3-actin was assessed by Western Blot. Total proteins were isolated from 3T3-L1 cells treated with compounds or vehicles for 8 days. The cells were washed twice with PBS, lysed in a HEPES-Tx-PI buffer (910 mM HEPES, 5 mM EDTA, 350 mM Sucrose, 1 μg/ml leupeptin, 1 μg/ml pepstatin, 1% Triton-X, 1 mM PMSF), processed with 25G needles and centrifuged at 12,000 rpm for 5 min. Protein concentration was determined using the Micro BCA Protein Assay Kit (Fisher Scientific, Pittsburgh, Pa., USA) following the manufacturers instructions. 25 μg proteins were loaded and separated by electrophoresis using the BioRad Electrophoretic System (65 V for 7 hour). The proteins were then transferred to nitrocellulose membranes at 40 V overnight. The membrane was blocked for 1 hour at room temperature in 5% nonfat milk in Tris-buffered saline (TBS), then washed with Tween-20-TBS (TTBS, 0.1% Tween-20) three times (15 min, 5 min, 5 min), followed by incubation with primary antibodies SREBP-1 (dilution 1:200), PPARγ (dilution 1:200), C/EBPα (dilution 1:200) (all purchased from Santa Cruz Biotechnology, Santa Cruz, Calif., USA) and 3-actin (dilution 1:1000, Sigma-Aldrich, St. Louis, Mo., USA) at room temperature for 2 hours. […]

3T3-L1 cells = test: MTT assay, 3T3-L1 viability during differentiation with clozapine, risperidone, berberine (Example 2); format: cell-based, mouse; settings: day 8
Experimental: Cell culture and drug treatment: 3T3-L1 cells (American Type Culture Collection, Manassas, Va., USA) were cultured at 37° C. in a humidified 5% CO2 atmosphere and grown in a DMEM (Sigma-Aldrich, St. Louis, Mo. USA) supplemented with 10% Fetal Bovine Serum (FBS, Atlanta Biologicals Corp., Lawrenceville, Ga., USA), 100 units/ml penicillin and 100 μg/ml streptomycin. Differentiation was induced by addition of 167 nM insulin, 520 μM isobutylmethylxanthine (IBMX), and 1 μM dexamethasone for 2 days and then only with 167 nM insulin for 6 days. Detailed protocol was described as our previous report (Hu et al., Phytomedicine (2009) 16(9):864-873).
Medium was removed after differentiation and treatment for 8 days, MTT (Methylthiazolyldiphenyl—tetrazolium bromide 0.5 mg/ml, 50 μl/well) was added.

[2] = Food intake, high-fat diet and normal diet mice; format: in vivo, mouse
Description: Six mice per subgroup were obtained finally.

[3] = test system: low density lipoprotein receptor (LDLR); test: Real-time RT-PCR, LDLR mRNA in 3T3-L1; format: cell-based, mouse; settings: 8 days
Description: (§1) Realtime RT-PCR: Real-time reverse transcriptase polymerase chain reaction (RT-PCR) analysis was used to measure mRNA expression of genes SREBP-1, PPARγ, C/EBPα, low density lipoprotein receptor (LDLR), Adiponectin, and fatty acid synthase (FAS) under the control of β-actin. Briefly, total RNA was isolated from 3T3-L1 cells following treatment for 8 days with Trizol reagent (Invitrogen, Carlsbad, Calif., USA) according to the manufacturer's instruction. RNA was quantified using absorption of light at 260 nm, and sample purity was checked by OD 260 nm/280 nm. 0.8 μg of total RNA from each sample was used for reverse transcription reaction using the TaqMan Reverse Transcription Reagents (Applied Biosystems, Foster City, Calif., USA) according to the manufacturers' instructions. PCR was done using the SYBR green Master Mix (Applied Biosystems, Foster City, Calif., USA) according to the manufacturers' instructions. The temperature cycling conditions of amplification were as follows: an initial step of denaturation at 95° C. for 10 min, 40 cycles of denaturation at 95° C. for 30 s, annealing at 55° C. for 30 s, and elongation at 72° C. for 30 s. Realtime RT-PCR was performed using Mx3000P Realtime Thermocyclers (Statagene, La Jolla, Calif., USA). The relative mRNA levels of these genes were calculated by 2-delta delta CT method and normalized with control groups.

C/EBPα = test: Real-Time RT-PCR, C/EBPα mRNA in epididymal fat of FD mice; format: in vivo, mouse
Experimental: RNA and protein purification and quantification from epididymal fat tissues: RNA and protein was isolated from 60 mg of epididymal fat tissues with Trizol (Invitrogen, Carlsbad, Calif., USA) following the protocol recommended by the manufacturers. RNA was dissolved in pure water and quantified at 260/280 nm, and sample integrity was checked by 1.5% agarose gel electrophoresis. Protein concentration was determined using the Micro BCA Protein Assay Kit (Fisher Scientific, Pittsburgh, Pa., USA) according to the manufacturer's instructions.
Quantitative Real-Time RT-PCR: Real-Time reverse transcriptase polymerase chain reaction (RT-PCR) analysis was used to measure mRNA expression of genes PPARγ, C/EBPα, GATA-2 and GATA-3 in the control of β-actin. Total RNA (0.8 μg) from each sample was used for a reverse transcription reaction using the TaqMan Reverse Transcription Reagents (Applied Biosystems, Foster City, Calif., USA) following the manufacturer's instructions. PCR was done using the SYBR green Master Mix (Applied Biosystems, Foster City, Calif., USA) following the manufacturer's instructions. The cycling conditions of amplification were as follows: an initial step of denaturation at 95° C. for 10 min, 40 cycles of denaturation at 95° C. for 30 s, annealing at 55° C. for 30 s, and elongation at 72° C. for 30 s. Real-Time PCR was performed using Mx3000P Real-Time Thermocyclers (Stratagene, La Jolla, Calif., USA). The relative mRNA levels of these genes were calculated by 2-delta delta CT method and normalized with control-treated groups.

[4] = Description: Mouse experiments: All experiments were approved by Institutional Animal Care and Use Committee of South Dakota State University. Nine-week-old C57BL/6J male mice were purchased from The Jackson Laboratory. Group 1 mice were fed with normal diet (ND, D12450Bi, Research Diets Inc. New Brunswick, N.J., USA) for 9 weeks, group 2 mice were fed with ND for 6 weeks and then high-fat diet (FD, D12451i, Research Diets Inc. New Brunswick, N.J., USA) for 3 weeks. The mice were maintained according to The Jackson Laboratory guidelines for animal care and housed at 22±2° C. temperature, 55±5% relative humidity, with a light/dark cycle of 12 hours. Food (group 1 with normal fat diet and group 2 with high-fat diet until sacrifice) and water were provided ad libitum. […] Six mice per subgroup were obtained finally. […] Blood samples were collected from the hearts of anesthetized mice after feeding and treatment for 36 days following fast for 16 hours. When sacrificed, mouse liver, kidney, spleen and epididymal fat tissues were dissected and weighed. Epididymal fat tissues were immediately frozen in liquid nitrogen and stored at −80° C.
SREBP-1 = test: Real-time RT-PCR, SREBP-1 mRNA in 3T3-L1; format: cell-based, mouse; settings: 8 days
Description: as §1

PPARγ [5] = test: Real-time RT-PCR, PPARγ mRNA in 3T3-L1; format: cell-based, mouse; settings: 8 days
Description: as §1

[6] = 8 μM berberine + 15 μM clozapine
[7] = 8 μM berberine + 50 μM risperidone

With `COc1ccc2cc3[n+](cc2c1OC)CCc1cc2c(cc1-3)OCO2.[Cl-]` [berberine, Berberine (Chloride Form)] the “decrease of PPARγ protein expression vs clozapine treated group” value (PPARγ [1]; [6]) was 76%, the “decrease of PPARγ protein expression vs risperidone treated group” value (PPARγ [1]; [7]) was 85.7% and the “decrease of cell viability vs no berberine treated group” value (3T3-L1 cells; 8 μM berberine combined with 0 μM clozapine) was 22.3%. The “decrease of cell viability vs no berberine treated group” value (3T3-L1 cells; 8 μM berberine combined with 0 μM risperidone) was 17.8%, the “decrease of cell viability vs no berberine treated group” value (3T3-L1 cells; 8 μM berberine combined with 15 μM clozapine) was 16.5% and the “decrease of cell viability vs no berberine treated group” value (3T3-L1 cells; 8 μM berberine combined with 25 μM risperidone) was 19.5%. For the same compound, the “decrease of cell viability vs no berberine treated group” value (3T3-L1 cells; 8 μM berberine combined with 30 μM clozapine) was 15%, the “decrease of cell viability vs no berberine treated group” value (3T3-L1 cells; 8 μM berberine combined with 50 μM risperidone) was 20.2% and the food intake ([2]; FD mice, 0.75 mg/kg/day, 36 days (control 3.5±0.4)) was 3.0±0.3 g/mouse/day. For the same compound, the food intake ([2]; FD mice, 1.5 mg/kg/day, 36 days) was 2.7±0.5 g/mouse/day, the food intake ([2]; FD mice, 3 mg/kg/day, 36 days) was 2.5±0.2 g/mouse/day and the food intake ([2]; ND mice, 3 mg/kg/day, 36 days (control 3.8±0.7)) was 3.3±0.5 g/mouse/day. For the same compound, the “decrease of LDLR mRNA expression vs clozapine treated group” value [3, 6] was 82.3%, the “decrease of LDLR mRNA expression vs risperidone treated group” value [3, 7] was 90% and the “decrease of C/EBP-α mRNA expression vs control group” value (“decrease of C/EBP-α mRNA expression” below) (C/EBPα; 0.75 mg/kg/day) was 46.4%. For the same compound, the “decrease of C/EBP-α mRNA expression” value (C/EBPα; 1.5 mg/kg/day) was 66.1%, the “decrease of C/EBP-α mRNA expression” value (C/EBPα; 3 mg/kg/day) was 72.7% and the “liver weight, berberine vs control treated subgroup” value ([4]; ND mice) was “no significant difference”. The “toxicity to FD mice organs or to ND mice” value ([4]; up to 3 mg/kg/day i.p., 36 days) was “did not appear to exhibit any obvious toxicity”, the “decrease of SREBP-1 mRNA expression vs clozapine treated group” value (SREBP-1; [6]) was 68.9% and the “decrease of SREBP-1 mRNA expression vs risperidone treated group” value (SREBP-1; [7]) was 80.9%. The “decrease of PPARγ mRNA expression vs clozapine treated group” value (PPARγ [5]; [6]) was 87.7% and the “decrease of PPARγ mRNA expression vs risperidone treated group” value (PPARγ [5]; [7]) was 93.1%.
